Measured values from patent US20250100996A1, “HETEROCYCLOALKYL AND HETEROARYL COMPOUNDS AND PHARMACEUTICAL COMPOSITIONS THAT MODULATE IKZF2” (Plexium, Inc., priority 2021, published 2025).

Assays:
[1] = target: T1, IKZF2 (Helios) (Homo sapiens, UniProt Q9UKS7); test: IKZF2 reporter degradation assay (HEK 293T IKZF2-mNeonGreen reporter cell line); format: cell-based; conditions: HEK 293T IKZF2-mNeonGreen reporter, 24 hours incubation
T1 construct: Leu-Asp junction (codons ctcgac before the linker); mScarlet (behind P2A) (C, cleaved yes); expressed in transfected cells
T1 sequence (Q9UKS7 whole entry): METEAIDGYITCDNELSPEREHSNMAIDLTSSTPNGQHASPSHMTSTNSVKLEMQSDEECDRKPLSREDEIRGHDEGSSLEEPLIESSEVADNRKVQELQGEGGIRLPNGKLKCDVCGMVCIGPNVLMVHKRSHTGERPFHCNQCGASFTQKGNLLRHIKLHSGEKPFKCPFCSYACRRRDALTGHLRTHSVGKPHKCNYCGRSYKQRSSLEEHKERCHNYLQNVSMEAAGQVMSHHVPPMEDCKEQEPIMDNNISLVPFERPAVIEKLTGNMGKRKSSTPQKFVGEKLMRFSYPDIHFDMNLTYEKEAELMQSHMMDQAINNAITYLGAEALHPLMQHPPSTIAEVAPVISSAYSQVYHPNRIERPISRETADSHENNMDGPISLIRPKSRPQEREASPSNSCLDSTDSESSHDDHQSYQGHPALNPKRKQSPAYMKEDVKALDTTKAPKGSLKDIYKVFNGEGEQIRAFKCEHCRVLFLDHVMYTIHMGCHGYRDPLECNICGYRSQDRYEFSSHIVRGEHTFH
T1 sequence (Q96SW2 whole entry, further chain): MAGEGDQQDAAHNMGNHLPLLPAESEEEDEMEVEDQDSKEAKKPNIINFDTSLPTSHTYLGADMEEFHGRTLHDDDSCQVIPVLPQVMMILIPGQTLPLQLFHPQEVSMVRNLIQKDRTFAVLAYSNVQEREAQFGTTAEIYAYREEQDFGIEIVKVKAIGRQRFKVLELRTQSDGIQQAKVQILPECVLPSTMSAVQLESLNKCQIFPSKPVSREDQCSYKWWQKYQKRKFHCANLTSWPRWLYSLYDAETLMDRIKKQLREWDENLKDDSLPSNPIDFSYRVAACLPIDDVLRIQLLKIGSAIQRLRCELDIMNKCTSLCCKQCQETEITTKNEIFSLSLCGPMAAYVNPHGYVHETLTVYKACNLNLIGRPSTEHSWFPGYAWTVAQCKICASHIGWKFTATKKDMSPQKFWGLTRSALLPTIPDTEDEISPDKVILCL
T1 sequence (Q16531 whole entry partner): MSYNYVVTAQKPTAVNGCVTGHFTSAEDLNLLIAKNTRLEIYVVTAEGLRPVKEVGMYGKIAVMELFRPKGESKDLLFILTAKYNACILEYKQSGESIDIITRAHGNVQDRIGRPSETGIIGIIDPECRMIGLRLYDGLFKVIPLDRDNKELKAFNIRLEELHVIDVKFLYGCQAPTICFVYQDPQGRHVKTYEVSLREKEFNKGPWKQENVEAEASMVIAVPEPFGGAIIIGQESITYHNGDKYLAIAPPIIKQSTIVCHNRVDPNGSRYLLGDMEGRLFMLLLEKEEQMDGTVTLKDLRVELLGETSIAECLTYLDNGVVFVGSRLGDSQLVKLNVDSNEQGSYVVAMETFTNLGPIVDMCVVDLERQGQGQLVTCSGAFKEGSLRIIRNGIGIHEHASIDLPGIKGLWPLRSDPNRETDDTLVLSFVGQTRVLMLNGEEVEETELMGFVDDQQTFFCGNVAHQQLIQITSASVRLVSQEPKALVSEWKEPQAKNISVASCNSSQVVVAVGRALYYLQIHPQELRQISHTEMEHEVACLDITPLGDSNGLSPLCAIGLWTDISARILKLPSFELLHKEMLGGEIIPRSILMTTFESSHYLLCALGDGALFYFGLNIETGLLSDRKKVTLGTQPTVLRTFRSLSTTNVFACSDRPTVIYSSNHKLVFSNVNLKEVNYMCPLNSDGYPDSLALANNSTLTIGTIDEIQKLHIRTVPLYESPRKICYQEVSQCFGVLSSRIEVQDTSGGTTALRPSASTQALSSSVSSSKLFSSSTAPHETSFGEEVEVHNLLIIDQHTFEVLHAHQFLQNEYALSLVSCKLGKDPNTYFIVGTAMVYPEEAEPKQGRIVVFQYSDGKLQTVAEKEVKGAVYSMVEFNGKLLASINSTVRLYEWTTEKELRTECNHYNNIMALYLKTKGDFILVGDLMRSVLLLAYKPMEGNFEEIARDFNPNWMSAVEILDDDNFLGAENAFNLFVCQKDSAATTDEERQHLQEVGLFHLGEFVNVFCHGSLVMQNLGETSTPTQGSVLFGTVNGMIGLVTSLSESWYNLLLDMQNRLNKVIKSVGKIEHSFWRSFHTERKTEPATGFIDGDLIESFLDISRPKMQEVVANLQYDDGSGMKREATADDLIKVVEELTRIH
Source text: (§1) Polycistronic plasmids were constructed for the mammalian expression of fluorescent reporter fusions of human transcription factors IKZF1 (Ikaros), IKZF2 (Helios), and IKZF3 (Aiolos). The respective protein sequences had their C-terminal end joined to a GGGGS linker repeated three times followed by mNeonGreen, P2A sequence, and mScarlet. The DNA sequences of the open reading frames are as follows:
(§2) IKZF1, IKZF2, and IKZF3 constructs were cloned into the UCOE Hygromycin expression vectors (Millipore Sigma). Reporter constructs were transfected using cationic lipid reagents into adherent HEK 293T cells and stable integrants were selected by treatment with 200 μg/mL hygromycin B. Clonal populations were obtained from the population of stable integrants either by limiting dilution or fluorescence activated cell sorting.
(§3) The clonal stable cell lines were maintained under constant 200 μg/mL hygromycin B selection while being passaged for use in the degradation assays. […] The fluorescence intensity of the IKZF1/2/3-mNeonGreen (FITC channel) and mScarlet (PE channel) reporters were routinely analyzed by flow cytometry to confirm consistent expression levels between experiments.
(§4) The IKZF1/IKZF2/IKZF3 degradation assays were carried out by harvesting the HEK 293T reporter cell lines and resuspending the cells in media formulated for reduced background fluorescence (FluoroBrite; Thermo Fisher). The respective cell lines were seeded at a density of 4000 cells/well into black-walled 384-well optical grade assay tissue culture plates. The cells were incubated overnight at 37° C. to allow for attachment to the assay plate. Dilutions of the compounds were prepared in DMSO from 10 mM compound stocks. The assay plates were treated with appropriate concentrations of the compounds by dispensing the DMSO dilutions in quadruplicate wells with an upper limit of 0.5% final DMSO.
(§5) After 24 hours incubation with the compounds, the assay plates were imaged on an ImageXpress Pico microscopy system (cells maintained at 37° C. during imaging) to obtain the fluorescent readouts. The assay plates were imaged in the FITC and Tetramethylrhodamine (TRITC) channels to obtain the mNeonGreen fluorescence intensity (reporter degradation data) and mScarlet fluorescence intensity (for cell segmentation). 293T-IKZF1 and 293T-IKZF3 reporter cell lines were imaged with exposures of 500 milliseconds (ms) for both FITC and TRITC channels, while the 293T-IKZF2 reporter cell line was imaged with exposures of 1000 ms for FITC and 1250 ms for TRITC. The resulting data was analyzed with Cell Reporter Xpress software using the 2-channel cell scoring analysis with a “percent positive” readout. The TRITC channel was selected for the “nuclei” segmentation with a threshold of 20 while the FITC channel was selected for the “Marker 1” segmentation and a threshold of 100 for the IKZF1 and IKZF3 reporter lines. […] The minimum segmentation width was set to 6 micrometers and the maximum segmentation width was set to 15 micrometers for all cell lines. The DC50 calculations were determined by regression to best fit four-parameter logistic curves using GraphPad Prism.

[2] = target: T2, IKZF2 (Helios) (Homo sapiens, UniProt Q96SW2+Q9UKS7); test: as above; format: cell-based; conditions: HEK-293T, 24 h, @ 1 μM, HEK 293T IKZF2-mNeonGreen reporter, 24 hours incubation
T2 construct: Leu-Asp junction (codons ctcgac before the linker); mScarlet (behind P2A) (C, cleaved yes); expressed in transfected cells
T2 sequence (Q9UKS7 whole entry): as the sequence (Q9UKS7 whole entry) above
T2 sequence (Q96SW2 whole entry): as the sequence (Q96SW2 whole entry, further chain) above
T2 sequence (Q16531 whole entry partner): as the sequence (Q16531 whole entry partner) above
Source text: as §1, §2, §3, §4, §5

[3] = target: T3, IKZF3 (Aiolos) (Homo sapiens, UniProt Q9UKT9); test: IKZF3 reporter degradation assay (HEK 293T IKZF3-mNeonGreen reporter cell line); format: cell-based; conditions: HEK 293T IKZF3-mNeonGreen reporter, 24 hours incubation
T3 construct: Leu-Asp junction (codons ctcgac before the linker); mScarlet (behind P2A) (C, cleaved yes); expressed in transfected cells
T3 sequence (Q96SW2 whole entry partner): as the sequence (Q96SW2 whole entry, further chain) above
T3 sequence (Q16531 whole entry partner): as the sequence (Q16531 whole entry partner) above
T3 sequence (Q9UKT9 whole entry): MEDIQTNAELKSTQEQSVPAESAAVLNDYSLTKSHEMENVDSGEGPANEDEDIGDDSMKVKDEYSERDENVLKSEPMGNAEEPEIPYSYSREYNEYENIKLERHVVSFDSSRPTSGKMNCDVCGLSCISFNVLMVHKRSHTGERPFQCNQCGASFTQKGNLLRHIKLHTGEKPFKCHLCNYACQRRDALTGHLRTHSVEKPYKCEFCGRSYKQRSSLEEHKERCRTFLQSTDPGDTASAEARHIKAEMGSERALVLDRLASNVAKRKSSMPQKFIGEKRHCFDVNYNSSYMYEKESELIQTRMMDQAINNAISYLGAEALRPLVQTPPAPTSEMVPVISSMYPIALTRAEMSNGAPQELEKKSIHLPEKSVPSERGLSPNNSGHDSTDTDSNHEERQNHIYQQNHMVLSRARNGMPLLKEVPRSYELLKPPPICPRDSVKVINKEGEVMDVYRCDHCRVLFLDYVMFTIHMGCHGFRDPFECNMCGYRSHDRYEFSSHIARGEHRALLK
Source text: as §1, §2, §3, §4, §5

[4] = target: T4, human E3 ligase component cereblon (CRBN) (Homo sapiens, UniProt Q96SW2); test: Cereblon (CRBN) target engagement, NanoBRET TE Intracellular E3 Ligase Assay in transfected HEK-293T cells; conditions: read-out: CRBN Binding EC50
T4 construct: host or cells: HEK293T
T4 sequence (Q96SW2 whole entry): as the sequence (Q96SW2 whole entry, further chain) above
T4 sequence (Q16531 whole entry partner): as the sequence (Q16531 whole entry partner) above
Protocol: HEK293T cells were harvested ca. 75% confluent with trypsin and plated (500,000 cells/well) in a 6-well tissue culture plate in 2 mL of Dulbecco's Modified Eagle Medium (DMEM)^+10% Fetal Bovine Serum (FBS) and incubated overnight at 37° C.
The NanoLuc-CRBN fusion vector (Nluc-CRBN; Promega) contains the coding region of human E3 ligase component cereblon (CRBN) fused to the C-terminus of the NanoLuc luciferase coding region. A mixture of 10 ng Nluc-CRBN and 990 ng DDB1 Expression Vector (Promega) was added to 125 μL Opti-Minimum Essential Medium (Opti-MEM™; Thermo Fisher) along with […] P3000 reagent (Thermo Fisher) in a 1.5 mL epppendorf tube. This solution was added to Lipofectamine 3000 transfection reagent (5 μL; Thermo Fisher) in Opti-MEM (125 μL), mixed well, and incubated for 15 minutes at room temperature. The transfection mixture was added dropwise to cells and incubated overnight at 37° C., 5% CO2. Following transfection, cells were washed once with PBS, and trypsin (250 μL) was added and incubated 30-45 see to dislodge cells. Complete media (2 mL) was added to resuspend cells to form a single cell suspension. Cells were centrifuged at 320×g for 5 min at room temperature, the supernatant was removed, and the cell pellet resuspended in Opti-MEM (3 mL; wash step repeated ×2). After final resuspension in 5 mL Opti-MEM, cells were counted and resuspended at 200,000 cells/mL in Opti-MEM.
Cereblon target engagement was monitored by Bioluminescence Resonance Energy Transfer (BRET) in transfected HEK-293T cells using the NanoBRET TE Intracellular E3 Ligase Assay (Promega). Briefly, 384-well plates (white opaque plates, Corning 3574, low binding surface) were seeded with transfected HEK-293T cells (38 μL/well). 2 μL of 10 μM CRBN tracer (diluted 1:5 in Tracer Dilution Buffer) was added to each well. Plates were centrifuged at 320×g for 1 min at room temperature. Test compounds were added in a 11-point dilution series (typically 10 μM to 100 pM) using a TECAN D300e Digital Dispenser. Plates were shaken for 2 minutes on a microplate shaker to mix compounds. Plates were centrifuged at 320×g for 1 min at room temperature, and subsequently incubated for 2 hours at 37° C.
After incubation, plates were allowed to cool to room temperature for 15 minutes. 20 μL of 3× Complete NanoBRET™ Nano-Glo® Substrate plus Inhibitor Solution (Promega, 1:166 Substrate and 1:500 dilution of Extracellular NanoLuc® Inhibitor diluted in Opti-MEM) were added to each well. Plates were incubated with shaking at room temperature for 3 minutes covered with foil. Plates were read on a CLARIOstar microplate reader (BMG LabTech), measuring at 450 nm (donor emission) and 610 nm (acceptor emission). The IC50 values were determined by regression to best fit four-parameter logistic curves using GraphPad Prism.

DC50 [1] [nM] | inhibition at 1 µM [2] [%] | DC50 [3] [nM] | EC50 [4] [nM] | SMILES
49 | 59.3 | > 30000 | 38 | O=C1CCC(N2Cc3cc(O[C@H]4CCCC[C@@H]4N4CC(c5ncc(Br)cn5)C4)ccc3C2=O)C(=O)N1 (mixture of isomers) [Compound 137-B, Rac-3-(5-(((trans)-2-(3-(5-bromopyrimidin-2-yl)azetidin-1-yl)cyclohexyl)oxy)-1-oxoisoindolin-2-yl)piperidine-2,6-dione]
33 | 62.4 | > 30000 | 35 | O=C1CCC(N2Cc3cc(O[C@@H]4CCCC[C@@H]4N4CC(c5ncncc5Cl)C4)ccc3C2=O)C(=O)N1 (mixture of isomers) [Compound 139-B, Rac-3-(5-(((cis)-2-(3-(5-chloropyrimidin-4-yl)azetidin-1-yl)cyclohexyl)oxy)-1-oxoisoindolin-2-yl)piperidine-2,6-dione]
7 | 74.9 | > 30000 | 12 | O=C1CCC(N2Cc3cc(O[C@@H]4CCCC[C@@H]4N4CC(c5ccc6ccccc6n5)C4)ccc3C2=O)C(=O)N1 (mixture of isomers) [Compound 146-B, Rac-3-(1-oxo-5-(((cis)-2-(3-(quinolin-2-yl)azetidin-1-yl)cyclohexyl)oxy)isoindolin-2-yl)piperidine-2,6-dione]
41 | 43.9 | > 30000 | 3 | O=C1CCC(N2Cc3cc(O[C@H]4CCCC[C@@H]4N4CC(c5ccc6ccccc6n5)C4)ccc3C2=O)C(=O)N1 (mixture of isomers) [Compound 152-B, Rac-3-(1-oxo-5-(((trans)-2-(3-(quinolin-2-yl)azetidin-1-yl)cyclohexyl)oxy)isoindolin-2-yl)piperidine-2,6-dione]
16 | 73.4 | > 30000 | 32 | O=C1CCC(N2Cc3cc(O[C@@H]4CCCC[C@@H]4N4CC(c5ccncc5F)C4)ccc3C2=O)C(=O)N1 (mixture of isomers) [Compound 153-B, Rac-3-(5-(((cis)-2-(3-(3-fluoropyridin-4-yl)azetidin-1-yl)cyclohexyl)oxy)-1-oxoisoindolin-2-yl)piperidine-2,6-dione]
11 | 75.5 | > 30000 | 18 | O=C1CCC(N2Cc3cc(O[C@@H]4CCCC[C@@H]4N4CC(c5cncc(Cl)c5)C4)ccc3C2=O)C(=O)N1 (mixture of isomers) [Compound 155-B, Rac-3-(5-(((cis)-2-(3-(5-chloropyridin-3-yl)azetidin-1-yl)cyclohexyl)oxy)-1-oxoisoindolin-2-yl)piperidine-2,6-dione]
9 | 58.6 | > 30000 | 13 | O=C1CCC(N2Cc3cc(O[C@@H]4CCCC[C@@H]4N4CC(c5cc(Cl)ccn5)C4)ccc3C2=O)C(=O)N1 (mixture of isomers) [Compound 165-B, Rac-3-(5-(((cis)-2-(3-(4-chloropyridin-2-yl)azetidin-1-yl)cyclohexyl)oxy)-1-oxoisoindolin-2-yl)piperidine-2,6-dione]
11 | 75.9 | > 30000 | 31 | O=C1CCC(N2Cc3cc(OC4CCCCC4N4CC(C(=O)N5CCCCC5)C4)ccc3C2=O)C(=O)N1 (single isomer, unassigned) [Compound 22-A, 3-(1-oxo-5-((2-(3-(piperidine-1-carbonyl)azetidin-1-yl)cyclohexyl)oxy)isoindolin-2-yl)piperidine-2,6-dione]
2 | 86.2 | > 30000 | 3 | O=C1CCC(N2Cc3cc(O[C@H]4CCCC[C@@H]4N4CC(c5ccc6ccccc6n5)C4)ccc3C2=O)C(=O)N1 (single isomer, unassigned) [Compound 89-B]
111 | 41.3 |  | 55 | O=C1CCC(N2Cc3cc(O[C@H]4CCCC[C@H]4N4CC(c5ccc(Cl)cn5)C4)ccc3C2=O)C(=O)N1 (single isomer, unassigned) [Compound 98-B]
62 | 29.7 |  | 30 | O=C1CCC(N2Cc3cc(O[C@H]4CCCC[C@@H]4N4CC(c5ccnc6[nH]ccc56)C4)ccc3C2=O)C(=O)N1 (single isomer, unassigned) [Compound 113-B]
177 | 21.7 |  | 64 | O=C1CCC(N2Cc3cc(O[C@H]4CCCC[C@H]4N4CC(c5cncc(Cl)c5)C4)ccc3C2=O)C(=O)N1 (single isomer, unassigned) [Compound 115-B]
> 30000 |  | > 30000 | > 10000 | O=C1NC(=O)C2(N3Cc4cc(OC5CCCC5N5CC(c6ccncc6)C5)ccc4C3=O)CC1C2 (stereo not drawn) [Compound 148-B, 1-(1-oxo-5-((2-(3-(pyridin-4-yl)azetidin-1-yl)cyclopentyl)oxy)isoindolin-2-yl)-3-azabicyclo[3.1.1]heptane-2,4-dione]
> 30000 |  | > 30000 | 56 | O=C1CCC(N2Cc3cc(OC4CCCC4N4CC(c5cncc(C(F)(F)F)c5)C4)ccc3C2=O)C(=O)N1 (stereo not drawn) [Compound 154-B, 3-(1-oxo-5-((2-(3-(5-(trifluoromethyl)pyridin-3-yl)azetidin-1-yl)cyclopentyl)oxy)isoindolin-2-yl)piperidine-2,6-dione]
> 30000 |  | > 30000 | 39 | O=C1CCC(N2Cc3cc(OC4CCCCC4N4CC(c5cncc(C(F)(F)F)c5)C4)ccc3C2=O)C(=O)N1 (stereo not drawn) [Compound 178-B, 3-(1-oxo-5-((2-(3-(5-(trifluoromethyl)pyridin-3-yl)azetidin-1-yl)cyclohexyl)oxy)isoindolin-2-yl)piperidine-2,6-dione]
